The results in this text go back to PubChem BioAssay (NCI).

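Interpolation was linear, between the two tested concentrations surrounding the appropriate level; five concentrations were tested over 48 hours in 96-well plates. TGI denotes the concentration required for complete inhibition of growth.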

Common to all, as to test: inhibition of tumour cell growth, NCI panel, 48 h
The test system of assay [1] is HOP-62 NSCLC.
Assay [2] concerns HT29 colon.
The test system of assay [3] is SK-MEL-2 melanoma.
Assay [4] deals with SR leukemia.

For `Cc1cc2occ(S(=O)(=O)NC(=O)Nc3ccc(Cl)cc3)c(=O)c2c(=O)o1`, the TGI in assay [1], in assay [2] and in assay [3] was greater than 100 µM in each case.

Turning to `CSc1nc[nH]c1C(N)=S`, the TGI in assay [1], in assay [2] and in assay [3] was greater than 100 µM in each case.

For the compound `CCc1cc2c(c3c1CCCC3=O)CC1(C2)Cc2cc(CC)c3c(c2C1)C(=O)CCC3`, the TGI in assay [1] is greater than 100 µM; in assay [2] it was greater than 100 µM; in assay [3] it was greater than 100 µM; in assay [4], 75.1 µM.

As to `COc1cccc(N=NN2CCCC2)c1`, the TGI in assay [1], in assay [3] and in assay [4] was greater than 100 µM throughout.

Regarding `CC(CC=O)Nc1nn2c(=O)c3ccccc3nc2s1` (stereo not drawn), the TGI in assay [1], in assay [2], in assay [3] and in assay [4] was greater than 100 µM in each case.

Take `c1ccc(Nc2nnc(CCCCCCCCc3nnc(Nc4ccccc4)o3)o2)cc1`: the TGI in assay [1], in assay [2] and in assay [3] was greater than 100 µM throughout.

Turning to `O=C1C2CC[C@@H]3C(=O)C(Cl)(Cl)[C@@H]3CCC2C1(Cl)Cl` (stereo partly drawn), the TGI in assay [1] is greater than 29.7 µM; in assay [2], greater than 100 µM; in assay [3] it was greater than 100 µM; in assay [4], 70.3 µM.

On to `CC(NNC(=O)c1ccncc1)c1ccc(Cl)cc1Cl` (stereo not drawn), for which the TGI in assay [1], in assay [2], in assay [3] and in assay [4] was greater than 100 µM throughout.

Consider `C[n+]1c2ccccc2c(C(=O)Nc2ccc(S(=O)(=O)Nc3ncccn3)cc2)c2ccccc21`, for which the TGI in assay [1], in assay [2], in assay [3] and in assay [4] was greater than 100 µM throughout.

In the case of `CC(=O)O[C@H]1C(=O)[C@@]2(C)[C@H]([C@H](OC(=O)c3ccco3)[C@]3(O)C[C@H](OC(=O)[C@H](O)[C@@H](NC(=O)c4ccccc4)c4ccccc4)C(C)=C1C3(C)C)[C@]1(OC(C)=O)CO[C@@H]1C[C@@H]2O`, the TGI in assay [1] was greater than 25 µM; in assay [2], greater than 25 µM; in assay [3], 0.578 µM; in assay [4], greater than 7.67 µM.

In the case of `CC[C@]1(Cc2ccc(OC)c(OC)c2)C=[N+]([O-])O[C@H](OC2CCCC2(c2ccccc2)c2ccccc2)[C@@H]1OC(=O)C(C)(C)C` (stereo partly drawn), the TGI in assay [1] is 6.93 µM; in assay [2] it was 4.49 µM; in assay [3] it was 7.66 µM; in assay [4] it was greater than 100 µM.

Turning to `O=C1C=C/C(=C/[C@H]2SSC=C[C@]23C=CC(=O)C3)C1`, the TGI is greater than 73.8 µM in assay [1], 32.2 µM in assay [2], greater than 76.2 µM in assay [3] and greater than 100 µM in assay [4].

Turning to `S=c1[nH]nc(CCCCCCCCc2n[nH]c(=S)o2)o1`, the TGI in assay [1], in assay [2] and in assay [3] was greater than 100 µM in each case.

Take `CC(=O)N1c2cc(N=NN(C)C)ccc2NC(=O)CC1C` (stereo not drawn): the TGI in assay [1], in assay [2] and in assay [3] was greater than 100 µM each time.

As for `C=CCOC(=O)N1c2ccc(O)cc2[C@@]23O[C@@]24[C@@H]1C#C/C=C\C#C[C@]3(O)C(=O)C[C@@H]4C`, the TGI in assay [1] was greater than 100 µM; in assay [2] it was greater than 100 µM; in assay [3] it was greater than 100 µM; in assay [4], 42.3 µM.

As for `C/C(Nc1ccc(Cl)cc1)=C1/CCOC1=O`, the TGI in assay [1], in assay [2], in assay [3] and in assay [4] was greater than 100 µM in each case.

As for `Cc1cc(C)nc(NS(=O)(=O)c2ccc(Nc3c4ccccc4nc4ccc(C(=O)Nc5ccc(S(=O)(=O)N=C(N)N)cc5)cc34)cc2)n1`, the TGI in assay [1], in assay [2], in assay [3] and in assay [4] was greater than 100 µM each time.

On to `COc1ccc(/C=N/NC(=S)Nc2cc(C)ccc2OC)cc1`, for which the TGI was greater than 100 µM in assay [1], 79.4 µM in assay [2], 43.8 µM in assay [3] and 41.9 µM in assay [4].

Regarding `COc1ccc2c(c1)CC[C@@H]1C2CC[C@]2(C)C(=C=CP(=O)(O)O)CCC12` (stereo partly drawn), the TGI in assay [1], in assay [2], in assay [3] and in assay [4] was greater than 100 µM each time.

On to `Cc1ccccc1Nc1nc2ccccc2nc1NS(=O)(=O)c1ccccc1`, for which the TGI in assay [1], in assay [2], in assay [3] and in assay [4] was greater than 100 µM in each case.

Regarding `C=CCN1C(=O)CC(=O)N(NC2=NNC3(C(=O)N2)c2ccccc2-c2ccccc23)C1=S`, the TGI in assay [1] is greater than 100 µM; in assay [2], greater than 100 µM; in assay [3], 74.5 µM; in assay [4] it was 61.1 µM.

For `O=C(O)CCC1NC(/C(=C/c2ccccc2O)NC(=O)c2ccccc2)OC1=O` (stereo not drawn), the TGI is 62.4 µM in assay [1], greater than 100 µM in assay [2] and greater than 100 µM in assay [3].

In the case of `C#CCOC(=O)C(=[N+]=[N-])C(=O)CC(C)C`, the TGI in assay [1], in assay [2], in assay [3] and in assay [4] was greater than 10 µM throughout.

For `CCOC(=O)c1cn(CC)c2ccc3c(c2c1=O)S(=O)(=O)C=C3`, the TGI in assay [1], in assay [2] and in assay [3] was greater than 100 µM each time.

As for `Cc1cc2c(cc1Cl)Sc1n[nH]c(=O)n1S2(=O)=O`, the TGI in assay [1] and in assay [2] was greater than 100 µM throughout.

As to `COc1ccc(C23OCC(Cc4cc(OC)c(OC)cc42)C3CO)cc1OC` (stereo not drawn), the TGI in assay [1], in assay [3] and in assay [4] was greater than 100 µM throughout.

With `Cc1cc(C)n2c(nc3ccccc32)c1C#N`, the TGI in assay [2] and in assay [3] was greater than 100 µM in each case.

For `c1cc2c(cc1[C@@H]1OC[C@@H]3[C@H]1CO[C@H]3c1ccc3c(c1)OCO3)OCO2`, the TGI in assay [1], in assay [2] and in assay [3] was greater than 100 µM throughout.
